# Data reported in patent publication US11840686B2, “Modulation of prekallikrein (PKK) expression” (Ionis Pharmaceuticals, Inc., priority 2013, dated 2023).
# Columns and labels:
# [1] = system: captopril-induced vascular permeability; test: Combination of PKK and Factor 12 antisense oligonucleotides on captopril-induced vascular permeability (Example 15); assay type: in vivo, mouse; settings: positive control: PBS + captopril 20 μg ip + HOE-140 30 μg ip
# Protocol: Mice were treated varying doses of ISIS 410944, a 5-10-5 MOE gapmer targeting Factor 12 ([…]; SEQ ID NO: 2247), and ISIS 482584 in a captopril-induced vascular permeability model.
# Group 1 consisted of 4 mice and was treated with PBS administered subcutaneously twice a week for 3 weeks. No other treatment was administered to Group 1 which served as a control group to measure the basal levels of vascular permeability.
# Group 2 consisted of 8 mice and was treated with PBS administered subcutaneously twice a week for 3 weeks. At the end of the treatment period, the mice were intraperitoneally administered 20 μg of captopril.
# Group 3 consisted of 4 mice and was treated with PBS administered subcutaneously twice a week for 3 weeks. At the end of the treatment period, the mice were intraperitoneally administered 20 μg of captopril. The mice were also intraperitoneally administered 30 μg of HOE-140. Group 3 served as a positive control for inhibition of captopril-induced vascular permeability.
# Groups 4, 5, 6, 7, and 8 consisted of 8 mice each and were treated with 2.5 mg/kg, 5 mg/kg, 10 mg/kg, 20 mg/kg, or 40 mg/kg (corresponding to 5 mg/kg, 10 mg/kg, 20 mg/kg, 40 mg/kg, or 80 mg/kg per week), respectively of ISIS 482584 and ISIS 410944 each administered subcutaneously twice a week for 3 weeks. At the end of the treatment period, the mice of all the groups were intraperitoneally administered 20 μg of captopril. Groups 4-8 served as the experimental treatment groups for examining the effect of ISIS 410944 and ISIS 482584 on captopril-induced vascular permeability.
# All the groups were then injected with 30 mg/kg of Evans Blue solution in the tail vein. The mice were sacrificed 30 min after the Evans Blue solution administration and colons, feet, ears, and intestines were harvested.
# The harvested tissues from the feet, colon, and ears were placed in formamide solution overnight to leach out the Evans Blue dye. The formamide solution containing feet and ear tissue was heated to 55° C. and left overnight. Higher OD values are associated with higher levels of permeability.
# human PKK mRNA = test: Human PKK mRNA in liver of human KLKB1 transgenic mice (Example 7); assay type: in vivo; settings: transgenic mice
# Summary of the method: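 Transgenic mice carrying a 37,390 bp human KLKB1 fragment dosed subcutaneously twice weekly for 3 weeks at 2.5, 5.0, 10 or 20 mg/kg/week; PBS controls. Liver harvested 48 h after the last dose. Human PKK mRNA measured by real-time PCR and expressed as % inhibition versus PBS.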
Compound,"OD600 nm of Evans Blue dye, Colon [1]","OD600 nm of Evans Blue dye, Ears [1]","OD600 nm of Evans Blue dye, Feet [1]","OD600 nm of Evans Blue dye, Intestines [1]",human PKK mRNA inhibition (human PKK mRNA; 2.5 mg/kg/week s.c. twice a week for 3 weeks),human PKK mRNA inhibition (human PKK mRNA; 5.0 mg/kg/week s.c. twice a week for 3 weeks),human PKK mRNA inhibition (human PKK mRNA; 10 mg/kg/week s.c. twice a week for 3 weeks),human PKK mRNA inhibition (human PKK mRNA; 20 mg/kg/week s.c. twice a week for 3 weeks)
"NC(N)=NCCC[C@@H](N)C(=O)N[C@@H](CCCN=C(N)N)C(=O)N1CCC[C@H]1C(=O)N1C[C@H](O)C[C@H]1C(=O)NCC(=O)N[C@@H](Cc1cccs1)C(=O)N[C@@H](CO)C(=O)N1Cc2ccccc2C[C@@H]1C(=O)N1[C@H](C(=O)N[C@@H](CCCN=C(N)N)C(=O)O)C[C@@H]2CCCC[C@@H]21 [HOE-140, Icatibant, reference compound]",0.23,0.04,0.06,0.15,,,,
Tes Ges mCes Aes Aes Gds Tds mCds Tds mCds Tds Tds Gds Gds mCds Aes Aes Aes mCes Ae [ISIS 546254],,,,,31%,55%,84%,83%
